From ChEMBL document CHEMBL1201862, “PubChem BioAssay data set” (2004)
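Five concentrations, 48 hours, 96-well plates. GI50 marks 50% less growth.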 The source made the active and inactive calls. No stated cut-off is given here; in the data, active = GI50 up to about 1.1 µM and inactive = higher.

Tests used:
Assay in all cases: NCI tumour cell line growth inhibition, 48 h
OVCAR-5 = tested on: OVCAR-5
SK-MEL-5 = tested on: SK-MEL-5
PC-3 = tested on: PC-3
SF-295 = tested on: SF-295
DU-145 = tested on: DU-145
SNB-19 = tested on: SNB-19
SNB-75 = tested on: SNB-75
SK-OV-3 = tested on: SK-OV-3
SF-268 = tested on: SF-268
T47D = tested on: T47D
OVCAR-8 = tested on: OVCAR-8
RXF 393 = tested on: RXF 393
MCF7 = tested on: MCF7
U-251 = tested on: U-251
SN12C = tested on: SN12C
UACC-257 = tested on: UACC-257
SK-MEL-2 = tested on: SK-MEL-2
OVCAR-4 = tested on: OVCAR-4
K562 = tested on: K562
786-0 = tested on: 786-0
EKVX = tested on: EKVX
SF-539 = tested on: SF-539
HCT-116 = tested on: HCT-116
HOP-62 = tested on: HOP-62
COLO 205 = tested on: COLO 205
SK-MEL-28 = tested on: SK-MEL-28
SW-620 = tested on: SW-620
UO-31 = tested on: UO-31
MDA-N = tested on: MDA-N
TK-10 = tested on: TK-10
MDA-MB-435 = tested on: MDA-MB-435
ACHN = tested on: ACHN
SR = tested on: SR
HT-29 = tested on: HT-29
KM12 = tested on: KM12
HCT-15 = tested on: HCT-15
HL-60 = tested on: HL-60
HCC 2998 = tested on: HCC 2998
NCI/ADR-RES = tested on: NCI/ADR-RES
A549 = tested on: A549
MDA-MB-231 = tested on: MDA-MB-231
RPMI-8226 = tested on: RPMI-8226
NCI-H460 = tested on: NCI-H460
NCI-H226 = tested on: NCI-H226
Hs-578T = tested on: Hs-578T
UACC-62 = tested on: UACC-62
IGROV-1 = tested on: IGROV-1
CCRF-CEM = tested on: CCRF-CEM
MOLT-4 = tested on: MOLT-4
A498 = tested on: A498
NCI-H23 = tested on: NCI-H23
Malme-3M = tested on: Malme-3M
LOX IMVI = tested on: LOX IMVI
CAKI-1 = tested on: CAKI-1
BT-549 = tested on: BT-549
M14 = tested on: M14
OVCAR-3 = tested on: OVCAR-3
HOP-92 = tested on: HOP-92

C#CC(C)(C)Oc1cc(OC)c2c(=O)c3ccccc3n(C)c2c1
GI50 (OVCAR-5): 31.8 µM (inactive)
GI50 (SK-MEL-5): 11.1 µM (inactive)
GI50 (PC-3): 13.8 µM (inactive)
GI50 (SF-295): 19.5 µM (inactive)
GI50 (DU-145): 12.4 µM (inactive)
GI50 (SNB-19): 14.7 µM (inactive)
GI50 (SNB-75): 24.8 µM (inactive)
GI50 (SK-OV-3): 23 µM (inactive)
GI50 (SF-268): 11.6 µM (inactive)
GI50 (T47D): 2.84 µM (inactive)
GI50 (OVCAR-8): 15.4 µM (inactive)
GI50 (RXF 393): 25.2 µM (inactive)
GI50 (MCF7): 20.1 µM (inactive)
GI50 (U-251): 30.3 µM (inactive)
GI50 (SN12C): 10 µM (inactive)
GI50 (UACC-257): 10.9 µM (inactive)
GI50 (SK-MEL-2): 16.3 µM (inactive)
GI50 (OVCAR-4): 7.8 µM (inactive)
GI50 (K562): 10.7 µM (inactive)
GI50 (786-0): 7.46 µM (inactive)
GI50 (EKVX): 20.9 µM (inactive)
GI50 (SF-539): 26.1 µM (inactive)
GI50 (HCT-116): 17.4 µM (inactive)
GI50 (HOP-62): 27 µM (inactive)
GI50 (COLO 205): 14.8 µM (inactive)
GI50 (SK-MEL-28): 16.2 µM (inactive)
GI50 (SW-620): 31.9 µM (inactive)
GI50 (UO-31): 3.87 µM (inactive)
GI50 (MDA-N): 12.6 µM (inactive)
GI50 (TK-10): 23.6 µM (inactive)
GI50 (MDA-MB-435): 11 µM (inactive)
GI50 (ACHN): 12.7 µM (inactive)
GI50 (SR): 2.83 µM (inactive)
GI50 (HT-29): 4.81 µM (inactive)
GI50 (KM12): 10.9 µM (inactive)
GI50 (HCT-15): 10.9 µM
GI50 (HL-60): 10.9 µM (inactive)
GI50 (HCC 2998): 30.7 µM (inactive)
GI50 (NCI/ADR-RES): 13.8 µM (inactive)
GI50 (A549): 9.86 µM (inactive)
GI50 (MDA-MB-231): 15.2 µM (inactive)
GI50 (RPMI-8226): 4.4 µM (inactive)
GI50 (NCI-H460): 13.5 µM (inactive)
GI50 (NCI-H226): 16.6 µM (inactive)
GI50 (Hs-578T): 17.5 µM (inactive)
GI50 (UACC-62): 7.59 µM (inactive)
GI50 (IGROV-1): 0.0238 µM (active)
GI50 (CCRF-CEM): 5.27 µM (inactive)
GI50 (MOLT-4): 3.85 µM (inactive)

CC(C)C1OC(=O)/C=C/C=C/C=C/C=C/C=C/CC(O)CC(O)CC(O)CC(O)CC(O)CC(O)CC(O)CC(O)/C=C/C1C (stereo not drawn)
GI50 (OVCAR-5): > 100 µM (inactive)
GI50 (SK-MEL-5): > 100 µM (inactive)
GI50 (PC-3): > 100 µM (inactive)
GI50 (SF-295): > 100 µM (inactive)
GI50 (DU-145): > 100 µM (inactive)
GI50 (SNB-19): > 100 µM (inactive)
GI50 (SNB-75): > 100 µM (inactive)
GI50 (A498): > 100 µM (inactive)
GI50 (SF-268): > 100 µM (inactive)
GI50 (OVCAR-8): > 100 µM (inactive)
GI50 (NCI-H23): > 100 µM (inactive)
GI50 (RXF 393): 73.8 µM (inactive)
GI50 (Malme-3M): > 100 µM (inactive)
GI50 (MCF7): > 100 µM (inactive)
GI50 (U-251): > 100 µM (inactive)
GI50 (SN12C): > 100 µM (inactive)
GI50 (UACC-257): > 100 µM (inactive)
GI50 (SK-MEL-2): > 100 µM (inactive)
GI50 (OVCAR-4): > 100 µM (inactive)
GI50 (K562): > 100 µM (inactive)
GI50 (LOX IMVI): > 100 µM (inactive)
GI50 (CAKI-1): > 100 µM (inactive)
GI50 (786-0): > 100 µM (inactive)
GI50 (BT-549): > 100 µM (inactive)
GI50 (EKVX): > 100 µM (inactive)
GI50 (SF-539): > 100 µM (inactive)
GI50 (HCT-116): > 100 µM (inactive)
GI50 (HOP-62): > 100 µM (inactive)
GI50 (M14): > 100 µM (inactive)
GI50 (COLO 205): > 100 µM (inactive)
GI50 (SK-MEL-28): > 100 µM (inactive)
GI50 (SW-620): > 100 µM (inactive)
GI50 (UO-31): > 100 µM (inactive)
GI50 (MDA-N): > 100 µM (inactive)
GI50 (TK-10): > 100 µM (inactive)
GI50 (MDA-MB-435): > 100 µM (inactive)
GI50 (ACHN): > 100 µM (inactive)
GI50 (SR): > 100 µM (inactive)
GI50 (HT-29): > 100 µM (inactive)
GI50 (KM12): > 100 µM (inactive)
GI50 (OVCAR-3): > 100 µM (inactive)
GI50 (HCT-15): > 100 µM
GI50 (HL-60): > 100 µM (inactive)
GI50 (HCC 2998): > 100 µM (inactive)
GI50 (NCI/ADR-RES): > 100 µM (inactive)
GI50 (A549): > 100 µM (inactive)
GI50 (MDA-MB-231): > 100 µM (inactive)
GI50 (RPMI-8226): > 100 µM (inactive)
GI50 (NCI-H460): > 100 µM (inactive)
GI50 (NCI-H226): > 100 µM (inactive)
GI50 (IGROV-1): > 100 µM (inactive)
GI50 (CCRF-CEM): > 100 µM (inactive)
GI50 (MOLT-4): > 100 µM (inactive)
GI50 (HOP-92): > 100 µM (inactive)
